Source: ChEMBL document CHEMBL1201862, “PubChem BioAssay data set” (2004)
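Protocol summary: plate cells (96-well), add compound at 5 concentrations, incubate 48 h, interpolate endpoints linearly. Abbreviation: GI50, concentration required for 50% inhibition of growth.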 Activity calls are given as the source filed them. Rule as the data show it: active = GI50 up to about 1.1 µM and inactive = higher.

How the values were obtained:
Experiment in all cases: NCI tumour cell line growth inhibition, 48 h
RXF 631 = system: RXF 631
DMS-114 = system: DMS-114
LXFL 529 = system: LXFL 529
DLD-1 = system: DLD-1
KM-20L2 = system: KM-20L2
HOP-18 = system: HOP-18
M19-MEL = system: M19-MEL
XF498 = system: XF498
SNB-78 = system: SNB-78

Measured: GI50

COC(=O)C(=O)C(C(=O)C=C(C)C)C(=O)C(=O)Nc1ccc(Cl)cc1C (configuration not stated)
inactive: RXF 631 > 100 µM | DMS-114 92 µM | LXFL 529 > 100 µM | DLD-1 > 100 µM | KM-20L2 > 100 µM | HOP-18 > 100 µM | M19-MEL > 100 µM

C/C(=N\Nc1ccccc1)c1sc(-c2nc(C)c(/C(C)=N/Nc3ccccc3)s2)nc1C
inactive: DMS-114 11.5 µM | LXFL 529 7.06 µM | DLD-1 22.1 µM | XF498 45.6 µM | SNB-78 > 64.7 µM | KM-20L2 6.46 µM | HOP-18 > 45 µM | M19-MEL 17.2 µM

O=c1[nH]c(-c2ccccc2)nc2ccc(Cl)cc12
inactive: DMS-114 > 100 µM | LXFL 529 29.4 µM | SNB-78 93.8 µM | KM-20L2 29.2 µM | M19-MEL 54.3 µM

O=C(CCN1CCCCC1CCO)Nc1ccc2c(c1)C(=O)c1ccc(NC(=O)CCN3CCCCC3CCO)cc1C2=O (configuration not stated)
inactive: DMS-114 4.08 µM | LXFL 529 2.32 µM | DLD-1 2.19 µM | SNB-78 3.2 µM | KM-20L2 20.1 µM | HOP-18 2.25 µM | M19-MEL 26.4 µM

CC1(C)C2CCC13C(=O)C1OC3(C2)C2C(=O)N(c3ccccc3)C(=O)C12 (configuration not stated)
inactive: RXF 631 > 100 µM | DMS-114 > 100 µM | LXFL 529 > 100 µM | SNB-78 > 100 µM | KM-20L2 > 100 µM | HOP-18 > 100 µM

N=C(c1ccccc1)N1CCCCC1
inactive: DMS-114 > 100 µM | LXFL 529 > 100 µM | DLD-1 > 100 µM | SNB-78 > 100 µM | KM-20L2 > 100 µM | HOP-18 > 100 µM | M19-MEL > 100 µM

CC(C)(C)c1ccccc1NS(=O)(=O)c1ccccc1
inactive: RXF 631 > 100 µM | DMS-114 49.9 µM | LXFL 529 > 100 µM | XF498 > 100 µM | SNB-78 > 100 µM | KM-20L2 94 µM | M19-MEL > 100 µM

Nc1nc(-c2ccco2)cc(-c2ccco2)n1
inactive: DMS-114 > 100 µM | LXFL 529 > 100 µM | XF498 > 100 µM | KM-20L2 > 100 µM | M19-MEL > 100 µM

COc1cc(Nc2cnc3ccc(N)cc3n2)cc(OC)c1OC
inactive: RXF 631 > 100 µM | DMS-114 79.3 µM | LXFL 529 56.5 µM | XF498 11 µM | SNB-78 > 100 µM | KM-20L2 56.6 µM | HOP-18 39.4 µM | M19-MEL > 84.1 µM

CCC(C)CNC1=C(NC(C)=O)C(=O)c2ccccc2C1=O (configuration not stated)
inactive: LXFL 529 > 100 µM | DLD-1 > 100 µM | XF498 > 100 µM | SNB-78 > 100 µM | KM-20L2 > 100 µM | M19-MEL 20.7 µM

NS(=O)(=O)c1ccc(NC(=O)c2cccn3c(=O)c4ccccc4nc23)cc1
inactive: RXF 631 > 100 µM | DMS-114 > 100 µM | LXFL 529 > 100 µM | DLD-1 > 100 µM | XF498 > 100 µM | SNB-78 > 100 µM | KM-20L2 > 100 µM | HOP-18 > 100 µM | M19-MEL > 100 µM

C/C=C(/CCC1NCCC2c3ccccc3NC12)[Si](C)(C)C (configuration not stated)
inactive: RXF 631 10.4 µM | DMS-114 4.53 µM | LXFL 529 3.65 µM | DLD-1 5.16 µM | XF498 3.15 µM | SNB-78 11.6 µM | KM-20L2 4.62 µM | HOP-18 13.7 µM | M19-MEL 12 µM

COc1ccc(O)cc1C=O
inactive: RXF 631 > 100 µM | DMS-114 32.8 µM | LXFL 529 77.1 µM | DLD-1 > 100 µM | XF498 99.1 µM | SNB-78 > 100 µM | KM-20L2 > 100 µM | HOP-18 > 100 µM | M19-MEL 77.1 µM

N#CCCN(CCC#N)c1ccc(/C=C2\N=C(COc3ccc(Cl)cc3Cl)OC2=O)cc1
inactive: RXF 631 > 100 µM | DMS-114 > 100 µM | LXFL 529 > 100 µM | DLD-1 > 100 µM | XF498 > 100 µM | SNB-78 > 100 µM | KM-20L2 > 100 µM | M19-MEL > 100 µM

COc1ccc(C2S/C(=C\c3cccc(O)c3)C(=O)N2NC(=O)Cc2ccccc2)cc1 (configuration not stated)
inactive: DMS-114 > 100 µM | LXFL 529 > 100 µM | DLD-1 > 100 µM | HOP-18 > 100 µM | M19-MEL > 100 µM

Cc1c(-c2nnc(-c3ccc(Cl)cc3)o2)c(=O)n(-c2ccccc2)n1C
inactive: DMS-114 > 100 µM | LXFL 529 > 100 µM | DLD-1 > 100 µM | XF498 > 100 µM | SNB-78 > 100 µM | KM-20L2 > 100 µM | HOP-18 > 100 µM | M19-MEL > 100 µM

COCCCNC(=O)C1C(=O)N(CCCOC)C(=O)/C1=N\N (configuration not stated)
inactive: RXF 631 > 100 µM | DMS-114 > 100 µM | LXFL 529 > 100 µM | DLD-1 > 100 µM | SNB-78 > 100 µM | KM-20L2 > 100 µM | HOP-18 > 100 µM | M19-MEL > 100 µM

COC(=O)c1c/c(=N\NC(=O)CC(=O)Nc2ccccc2Cl)c2ccccc2o1
inactive: RXF 631 > 100 µM | DMS-114 > 100 µM | LXFL 529 > 100 µM | DLD-1 > 100 µM | XF498 > 100 µM | SNB-78 > 100 µM | KM-20L2 > 100 µM

CN(C)c1ccc(/C=C(\C#N)C(=O)c2ccccc2)cc1Br
inactive: RXF 631 > 100 µM | DMS-114 > 100 µM | LXFL 529 > 100 µM | DLD-1 67.5 µM | XF498 > 100 µM | SNB-78 > 100 µM | KM-20L2 > 100 µM | HOP-18 > 100 µM

CCCCCC/C=C1\CCC(CN2CCCC2)C1=O (configuration not stated)
inactive: RXF 631 20.1 µM | DMS-114 13.8 µM | LXFL 529 3.85 µM | DLD-1 5.21 µM | XF498 17.4 µM | SNB-78 26 µM | KM-20L2 20.5 µM | HOP-18 18.7 µM | M19-MEL 11.4 µM

COC1=C(C)C(=O)c2c(cc3c(c2O)C(C)(CCC=C(C)C)C(C)O3)C1=O (configuration not stated)
inactive: DMS-114 > 100 µM | LXFL 529 > 100 µM | DLD-1 > 100 µM | XF498 > 100 µM | SNB-78 > 100 µM | KM-20L2 > 100 µM | HOP-18 > 48.2 µM | M19-MEL 10.1 µM

CN(C)c1nnnn1-c1c(N)n(C)c(=O)n(C)c1=O
inactive: RXF 631 > 100 µM | DMS-114 > 100 µM | LXFL 529 > 100 µM | DLD-1 > 100 µM | XF498 > 100 µM | SNB-78 > 100 µM | KM-20L2 > 100 µM | HOP-18 > 100 µM | M19-MEL > 100 µM

O=C1c2c(c3c4ccccc4[nH]c3c3[nH]c4ccccc4c23)C(=O)N1Cc1ccccc1
inactive: RXF 631 2.32 µM | DMS-114 2.82 µM | LXFL 529 3.44 µM | DLD-1 3.64 µM | XF498 2 µM | SNB-78 3.06 µM | KM-20L2 2.94 µM | M19-MEL 3.64 µM

C[C@@H]1C[C@]2(C[C@@H](C)C3[C@@H](CC4(C)[C@@H]5CCC6C(C)(C)OC(=O)C=C[C@]67C[C@@]5(CC[C@]34C)OO7)O2)OC1=O (some centres not stated)
inactive: DMS-114 > 100 µM | LXFL 529 31.6 µM | DLD-1 52.7 µM | XF498 17.6 µM | SNB-78 52.5 µM | HOP-18 > 100 µM

C[C@]12CCC(=O)C[C@H]1CCC(O)[C@@H]2Br (some centres not stated)
inactive: RXF 631 > 100 µM | DMS-114 > 100 µM | LXFL 529 > 100 µM | DLD-1 > 100 µM | XF498 > 100 µM | KM-20L2 > 100 µM | HOP-18 > 100 µM | M19-MEL > 100 µM

Oc1c2c(nc3cc4c(cc13)OCO4)-c1ccccc1CC2
inactive: RXF 631 > 100 µM | DMS-114 > 100 µM | LXFL 529 > 100 µM | DLD-1 > 100 µM | XF498 > 100 µM | KM-20L2 > 100 µM | M19-MEL > 100 µM
